ChEMBL document CHEMBL6078723, “Novel steroidal β-carboline derivatives as promising antibacterial candidates against methicillin-resistant Staphylococcus aureus” (Eur J Med Chem, 2025)
Activity calls are given as the source filed them. The calls are words filed in the database; no cut-off is given here.

Experiments:
Staphylococcus aureus [1] = assay: Antibacterial activity against Staphylococcus aureus CGMCC1.8721 in presence of phosphatidylglycerol; assay type: functional, organism-based
Staphylococcus aureus [2] = assay: Bactericidal activity against methicillin-resistant Staphylococcus aureus CGMCC1.12409 by CLSI based method; assay type: functional
Staphylococcus aureus [3] = assay: Bactericidal activity against Staphylococcus aureus CGMCC1.8721 by CLSI based method; assay type: functional
Staphylococcus aureus [4] = assay: Antibacterial activity against methicillin-resistant Staphylococcus aureus ATCC 33591; assay type: functional
Staphylococcus aureus [5] = assay: Antibacterial activity against Staphylococcus aureus CGMCC1.8721; assay type: functional
Staphylococcus aureus [6] = assay: Antibacterial activity against methicillin-resistant Staphylococcus aureus ATCC 43300; assay type: functional
Staphylococcus aureus [7] = assay: Antibacterial activity against methicillin-resistant Staphylococcus aureus CGMCC1.12409; assay type: functional
Staphylococcus aureus [8] = assay: Bactericidal activity against methicillin-resistant Staphylococcus aureus ATCC 43300 by CLSI based method; assay type: functional
Staphylococcus aureus [9] = assay: Bactericidal activity against methicillin-resistant Staphylococcus aureus ATCC 33591 by CLSI based method; assay type: functional
Staphylococcus aureus [10] = assay: Antibacterial activity against methicillin-resistant Staphylococcus aureus CGMCC1.12409 infected in mouse model assessed as reduction in neutrophils in skin tissues at 5 mg/kg measured for 5 days by H and E staining based analysis; assay type: functional, organism-based; conditions: time 5.0 day
Staphylococcus aureus [11] = assay: Antibacterial activity against methicillin-resistant Staphylococcus aureus CGMCC1.12409 infected in mouse model assessed as reduction in bacterial clones at 5 mg/kg measured for 5 days; assay type: functional, organism-based; conditions: time 5.0 day
Staphylococcus aureus [12] = assay: Antibacterial activity against methicillin-resistant Staphylococcus aureus CGMCC1.12409 infected in mouse model assessed as reduction in inflammation in skin tissues at 5 mg/kg measured for 5 days by H and E staining based analysis; assay type: functional, organism-based; conditions: time 5.0 day
Staphylococcus aureus [13] = assay: Antibacterial activity against methicillin-resistant Staphylococcus aureus CGMCC1.12409 infected in mouse model assessed as reduction in abscesses size at 5 mg/kg measured for 5 days; assay type: functional, organism-based; conditions: time 5.0 day
Staphylococcus aureus [14] = assay: Antibacterial activity against methicillin-resistant Staphylococcus aureus CGMCC1.12409 infected in mouse model assessed as reduction in bacterial load at infection site at 5 mg/kg measured for 5 days relative to control; assay type: functional; set-up: scale not given: the % may be the effect or the level left; conditions: time 5 day
Staphylococcus aureus [15] = assay: Induction of resistance development in Staphylococcus aureus CGMCC1.8721 assessed as fold increase in MIC at sub-lethal concentration following serial passages for 30 days relative to control; assay type: functional; conditions: time 30 day

SMILES	Activity (Staphylococcus aureus [1])	MBC (Staphylococcus aureus [2]) [µg/mL]	MBC (Staphylococcus aureus [3]) [µg/mL]	MIC (Staphylococcus aureus [4]) [µg/mL]	MIC (Staphylococcus aureus [5]) [µg/mL]	MIC (Staphylococcus aureus [6]) [µg/mL]	MIC (Staphylococcus aureus [7]) [µg/mL]	MBC (Staphylococcus aureus [8]) [µg/mL]	MBC (Staphylococcus aureus [9]) [µg/mL]	Activity (Staphylococcus aureus [10])	Activity (Staphylococcus aureus [11])	Activity (Staphylococcus aureus [12])	Activity (Staphylococcus aureus [13])	Activity (Staphylococcus aureus [14]) [%]	fold change (FC) (Staphylococcus aureus [15])
CNC(C)[C@@H]1CC[C@@H](N)[C@@H](O[C@H]2[C@H](O)[C@@H](O[C@H]3OC[C@](C)(O)[C@H](NC)[C@H]3O)[C@H](N)C[C@@H]2N)O1.CN[C@@H]1[C@@H](O)[C@@H](O[C@@H]2[C@@H](O)[C@H](O[C@H]3O[C@H](C(C)N)CC[C@H]3N)[C@@H](N)C[C@H]2N)OC[C@]1(C)O.CN[C@@H]1[C@@H](O)[C@@H](O[C@@H]2[C@@H](O)[C@H](O[C@H]3O[C@H](CN)CC[C@H]3N)[C@@H](N)C[C@H]2N)OC[C@]1(C)O (some centres not stated)	Active														
CCCCCCCCCC(=O)N[C@@H](Cc1c[nH]c2ccccc12)C(=O)N[C@@H](CC(N)=O)C(=O)N[C@@H](CC(=O)O)C(=O)N[C@@H]1C(=O)NCC(=O)N[C@@H](CCCN)C(=O)N[C@@H](CC(=O)O)C(=O)N[C@H](C)C(=O)N[C@@H](CC(=O)O)C(=O)NCC(=O)N[C@H](CO)C(=O)N[C@@H]([C@@H](C)CC(=O)O)C(=O)N[C@@H](CC(=O)c2ccccc2N)C(=O)O[C@@H]1C	inactive														
COc1ccc2[nH]c3c(CC[C@H](C)[C@H]4CC[C@H]5[C@@H]6[C@H](O)C[C@@H]7C[C@H](O)CC[C@]7(C)[C@H]6C[C@H](O)[C@]45C)[n+](Cc4cccc(F)c4)ccc3c2c1.[Br-]		4	2	2	1	1	2	2	2						
COc1cccc(C[n+]2ccc3c([nH]c4ccc(OC)cc43)c2CC[C@H](C)[C@H]2CC[C@H]3[C@@H]4[C@H](O)C[C@@H]5C[C@H](O)CC[C@]5(C)[C@H]4C[C@H](O)[C@]23C)c1.[Br-]		8	2	4	1	1	4	4	8						
CO[C@H]1/C=C/O[C@@]2(C)Oc3c(C)c(O)c4c(O)c(c(/C=N/N5CCN(C)CC5)c(O)c4c3C2=O)NC(=O)/C(C)=C\C=C\[C@H](C)[C@H](O)[C@@H](C)[C@@H](O)[C@@H](C)[C@H](OC(C)=O)[C@@H]1C	Active														
CCC[n+]1ccc2c([nH]c3ccc(OC)cc32)c1CC[C@H](C)[C@H]1CC[C@H]2[C@@H]3[C@H](O)C[C@@H]4C[C@H](O)CC[C@]4(C)[C@H]3CC[C@]12C.[Br-]		4	2	2	1	2	2	2	4						
COc1ccc2[nH]c3c(CC[C@H](C)[C@H]4CC[C@H]5[C@@H]6[C@H](O)C[C@@H]7C[C@H](O)CC[C@]7(C)[C@H]6C[C@H](O)[C@]45C)[n+](Cc4ccc(F)cc4)ccc3c2c1.[Br-]		2	1	2	0.5	1	1	2	2						
CC[n+]1ccc2c([nH]c3ccc(OC)cc32)c1CC[C@H](C)[C@H]1CC[C@H]2[C@@H]3[C@H](O)C[C@@H]4C[C@H](O)CC[C@]4(C)[C@H]3CC[C@]12C.[Br-]		4	2	2	1	2	2	2	4						
CN[C@H](CC(C)C)C(=O)N[C@H]1C(=O)N[C@@H](CC(N)=O)C(=O)N[C@H]2C(=O)N[C@H]3C(=O)N[C@H](C(=O)N[C@H](C(=O)O)c4cc(O)cc(O)c4-c4cc3ccc4O)[C@H](O)c3ccc(c(Cl)c3)Oc3cc2cc(c3O[C@@H]2O[C@H](CO)[C@@H](O)[C@H](O)[C@H]2O[C@H]2C[C@](C)(N)[C@H](O)[C@H](C)O2)Oc2ccc(cc2Cl)[C@H]1O [VANCOMYCIN]	Active									Active	Active	Active	Active	92.98	
COc1ccc2[nH]c3c(CC[C@H](C)[C@H]4CC[C@H]5[C@@H]6[C@H](O)C[C@@H]7C[C@H](O)CC[C@]7(C)[C@H]6C[C@H](O)[C@]45C)[n+](Cc4ccc(Br)cc4)ccc3c2c1.[Br-]		4	2	2	1	2	2	2	4						
CCn1cc(C(=O)O)c(=O)c2cc(F)c(N3CCNCC3)cc21 [NORFLOXACIN]	Active														64
COc1ccc2[nH]c3c(CC[C@H](C)[C@H]4CC[C@H]5[C@@H]6[C@H](O)C[C@@H]7C[C@H](O)CC[C@]7(C)[C@H]6C[C@H](O)[C@]45C)[n+](Cc4ccc(OC(F)(F)F)cc4)ccc3c2c1.[Br-]		2	1	2	1	1	1	2	4						
